This passage reports Ki and EC50 results from patent US9346815B2, “5-chloro-2-difluoromethoxyphenyl pyrazolopyrimidine compounds, compositions and methods of use thereof” (Genentech, Inc., priority 2014, dated 2016).

Test [1] has as its target isolated recombinant JAK2 kinase domain (Homo sapiens (Human), UniProt O60674). Description: JAK2 enzyme assay (Caliper LabChip, peptide phosphorylation). As to conditions: 25 μM ATP. Format: biochemical.
Test [2] concerns JAK1-dependent STAT6 phosphorylation downstream of IL-13 stimulation in BEAS-2B human bronchial epithelial cells. As to the kind of experiment: JAK1 pathway assay in BEAS-2B cells (IL-13-pSTAT6, MSD). In kind it is cell-based. As to conditions: read-out: IL13-pSTAT6 EC50 (uM)_BEAS-2B. The procedure, abridged: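 TF-1 cells are starved of GM-CSF overnight and run in serum-free medium, while BEAS-2B cells stay in complete growth medium. Inhibition of STAT6 phosphorylation is measured by MSD.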

The target in test [3] is isolated recombinant JAK1 kinase domain (Homo sapiens (Human), UniProt P23458). Description: JAK1 enzyme assay (Caliper LabChip, peptide phosphorylation). As to conditions: isolated recombinant JAK1 kinase domain, 25 μM ATP. In kind it is biochemical.
Chain of isolated recombinant JAK1 kinase domain (P23458 875-1153): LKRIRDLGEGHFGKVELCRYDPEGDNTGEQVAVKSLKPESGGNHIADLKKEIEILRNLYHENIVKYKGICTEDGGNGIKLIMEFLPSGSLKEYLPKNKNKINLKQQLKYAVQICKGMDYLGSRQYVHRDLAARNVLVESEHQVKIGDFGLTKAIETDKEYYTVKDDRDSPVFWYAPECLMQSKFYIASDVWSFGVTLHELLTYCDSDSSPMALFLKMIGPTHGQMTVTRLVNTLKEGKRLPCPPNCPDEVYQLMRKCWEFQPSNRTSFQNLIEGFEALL

Chain of isolated recombinant JAK2 kinase domain (O60674 849-1124): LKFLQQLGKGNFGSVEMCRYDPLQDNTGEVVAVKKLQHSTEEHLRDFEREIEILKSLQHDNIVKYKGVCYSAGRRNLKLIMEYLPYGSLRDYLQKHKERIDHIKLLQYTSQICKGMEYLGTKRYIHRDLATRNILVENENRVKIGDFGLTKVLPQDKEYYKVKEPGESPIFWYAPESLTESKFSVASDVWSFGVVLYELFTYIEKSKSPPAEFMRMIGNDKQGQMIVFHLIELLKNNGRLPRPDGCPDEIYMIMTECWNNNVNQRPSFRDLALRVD

For the compound `O=C(Nc1cn(CC(=O)N2CCNCC2)nc1-c1cc(Cl)ccc1OC(F)F)c1cnn2cccnc12` [Example 324, N-[3-[5-chloro-2-(difluoromethoxy)phenyl]-1-[2-oxo-2-(piperazin-1-yl)ethyl]-1H-pyrazol-4-yl]pyrazolo[1,5-a]pyrimidine-3-carboxamide], the Ki was found to be 1.61 nM in test [1] and 0.95 nM in test [3]. Besides, the concentration giving a half-maximal response (EC50) in test [2] worked out at 0.0566 µM.

For the compound `N#CCCCN1CCN(C(=O)Cn2cc(NC(=O)c3cnn4cccnc34)c(-c3cc(Cl)ccc3OC(F)F)n2)CC1` [Example 461, N-(3-(5-chloro-2-(difluoromethoxy)phenyl)-1-(2-(4-(3-cyanopropyl)piperazin-1-yl)-2-oxoethyl)-1H-pyrazol-4-yl)pyrazolo[1,5-a]pyrimidine-3-carboxamide], the results for the Ki in test [1] and in test [3] were 0.84 nM and 0.4 nM, respectively. Further, the EC50 in test [2] was determined as 0.0117 µM.

As for `CN(C)CC(O)Cn1cc(NC(=O)c2cnn3cccnc23)c(-c2cc(Cl)ccc2OC(F)F)n1` (stereo not drawn) [Example 404, N-(3-(5-chloro-2-(difluoromethoxy)phenyl)-1-(3-(dimethylamino)-2-hydroxypropyl)-1H-pyrazol-4-yl)pyrazolo[1,5-a]pyrimidine-3-carboxamide], the figures for the Ki in test [1] and in test [3] were 0.61 nM and 1.68 nM, respectively. The EC50 in test [2] stood at 0.0078 µM.

For `CC(C)(C)OC(=O)N1CC[C@H](n2cc(NC(=O)c3cnn4cccnc34)c(-c3cc(Cl)ccc3OC(F)F)n2)[C@@H](O)C1` (single isomer, unassigned) [Example 355], the Ki in test [1] was 3.72 nM; in test [3] it was 3.32 nM. Besides, the EC50 in test [2] amounted to 0.0678 µM.

Consider `CN(C)C(=O)CN1CCN(CC2CCN(C(=O)Cn3cc(NC(=O)c4cnn5cccnc45)c(-c4cc(Cl)ccc4OC(F)F)n3)CC2)CC1` [Example 427, N-(3-(5-chloro-2-(difluoromethoxy)phenyl)-1-(2-(4-((4-(2-(dimethylamino)-2-oxoethyl)piperazin-1-yl)methyl)piperidin-1-yl)-2-oxoethyl)-1H-pyrazol-4-yl)pyrazolo[1,5-a]pyrimidine-3-carboxamide], for which the inhibition constant Ki was determined as 1.25 nM in test [1] and 0.42 nM in test [3]. Moreover, the EC50 in test [2] was determined as 0.0224 µM.

For `CCOC(=O)C1CCN(CCN2CCN(C(=O)Cn3cc(NC(=O)c4cnn5cccnc45)c(-c4cc(Cl)ccc4OC(F)F)n3)CC2)CC1` [Example 334, ethyl 1-[2-[4-(2-[3-[5-chloro-2-(difluoromethoxy)phenyl]-4-[pyrazolo[1,5-a]pyrimidine-3-amido]-1H-pyrazol-1-yl]acetyl)piperazin-1-yl]ethyl]piperidine-4-carboxylate], the inhibition constant Ki worked out at 1.81 nM in test [1] and 0.69 nM in test [3]. Besides, in test [2], the 50% effective concentration (EC50) was found to be 0.0061 µM.

`CN(C)CCN1CCN(C(=O)Cn2cc(NC(=O)c3cnn4cccnc34)c(-c3cc(Cl)ccc3OC(F)F)n2)CC1` [Example 379, N-[3-[5-chloro-2-(difluoromethoxy)phenyl]-1-(2-[4-[2-(dimethylamino)ethyl]piperazin-1-yl]-2-oxoethyl)-1H-pyrazol-4-yl]pyrazolo[1,5-a]pyrimidine-3-carboxamide]: the inhibition constant (Ki) in test [1] was 2.33 nM; in test [3] it was 0.86 nM. For the same compound, the concentration giving a half-maximal response (EC50) in test [2] stood at 0.0755 µM.

As for `CC(C)(C)OC(=O)N1CC[C@H](O)[C@@H](n2cc(NC(=O)c3cnn4cccnc34)c(-c3cc(Cl)ccc3OC(F)F)n2)C1` (single isomer, unassigned) [Example 357], the inhibition constant (Ki) in test [1] worked out at 1.06 nM; in test [3], 1.22 nM. Besides, the EC50 in test [2] turned out to be 0.0216 µM.

As to `CC1CN(C)CCN1C(=O)Cn1cc(NC(=O)c2cnn3cccnc23)c(-c2cc(Cl)ccc2OC(F)F)n1` (stereo not drawn) [Example 375, N-[3-[5-chloro-2-(difluoromethoxy)phenyl]-1-[2-(2,4-dimethylpiperazin-1-yl)-2-oxoethyl]-1H-pyrazol-4-yl]pyrazolo[1,5-a]pyrimidine-3-carboxamide], the Ki in test [1] worked out at 1.54 nM; in test [3], 0.75 nM. Moreover, the EC50 in test [2] came out at 0.0716 µM.

As usually defined, the Ki is a measure of affinity in units of concentration, obtained from inhibition or displacement. As usually defined, the EC50 is the concentration needed to bring the measured effect to its halfway point.
